US6465482B2, “Arylpiperazinyl-cyclohexyl indole derivatives for the treatment of depression” (Wyeth, priority 1999, dated 2002)
Where a name gives a salt, the structure may show the parent alone.

Row | melting point | Compound
1 | 143 to 147 °C | COc1cc(N2CCN([C@H]3CC[C@@H](c4c[nH]c5ccc(C(F)(F)F)cc54)CC3)CC2)c2ncccc2c1 [Example 82, 6-Methoxy-8-(4-{(cis)-4-[5-(trifluoromethyl)-1H-indol-3-yl]cyclohexyl}-1-piperazinyl)quinoline]
2 | 210 to 212 °C | COc1cc(N2CCN([C@H]3CC[C@@H](c4cn(C)c5ccc(C#N)cc54)CC3)CC2)c2nccc(C)c2c1 [Example 51c, (cis)-3-{4-[4-(6-Methoxy-4-methylquinolin-8-yl)piperazin-1-yl]cyclohexyl}-1-methyl-1H-indole-5-carbonitrile]
3 | 276 °C | Brc1ccc2[nH]cc([C@H]3CC[C@@H](N4CCN(c5cccc6[nH]ccc56)CC4)CC3)c2c1 (as salt: HCl) [Example 5a, 5-Bromo-3-[cis-4-[4-(1H-indol-4-yl)-1-piperazinyl]cyclohexyl]-1H-indole]
4 | 314 to 315.5 °C | Clc1ccc2[nH]cc([C@H]3CC[C@H](N4CCN(c5cccc6[nH]ccc56)CC4)CC3)c2c1 (as salt: HCl) (hydrate or solvate) [Example 6b, 5-Chloro-3-[trans-4-[4-(1H-indol-4-yl)-1-piperazinyl]cyclohexyl]-1H-indole]
5 | 283 to 285 °C | COc1ccc2[nH]cc([C@H]3CC[C@@H](N4CCN(c5cccc6[nH]ccc56)CC4)CC3)c2c1 (as salt: HCl) (hydrate or solvate) [Example 8a, 5-Methoxy-3-[cis-4-[4-(1H-indol-4-yl)-1-piperazinyl]cyclohexyl]-1H-indole]
6 | 215 to 217 °C | Cn1cc([C@H]2CC[C@@H](N3CCN(c4cc(Br)cc5cccnc45)CC3)CC2)c2cc(F)ccc21 [Example 58a, (cis)-6-Bromo-8-{4-[4-(5-fluoro-1-methyl-1H-indol-3-yl)cyclohexyl]piperazin-1-yl}quinoline]
7 | 230 to 233 °C | COc1cc2cccnc2c(N2CCN([C@H]3CC[C@@H](c4cn(C)c5ccc(C#N)cc54)CC3)CC2)n1 (as salt: salt) [Example 66b, (cis)-3-{4-[4-(6-Methoxy[1,7]naphthyridin-8-yl)piperazin-1-yl]cyclohexyl}-1-methyl-1H-indole-5-carbonitrile]
8 | 199 to 201 °C | N#Cc1ccc2[nH]cc(C3=CCC(N4CCN(c5cccc6[nH]ccc56)CC4)CC3)c2c1 (centres unmarked) (as salt: HCl) [Example 36, 3-{4-[4-(1H-Indol-4-yl)-piperazin-1-yl]-cyclohex-1-enyl}-1H-indole-5-carbonitrile]
9 | 216 to 220 °C | COc1cc(N2CCN([C@H]3CC[C@@H](c4c[nH]c5ncccc54)CC3)CC2)c2ncccc2c1 (as salt: oxalate) [Example 78, 6-Methoxy-8-{cis-4-[4-(1H-pyrrolo[2,3-b]pyridin-3-yl)cyclohexyl]-1-piperazinyl}quinoline]
10 | 261 to 263.5 °C | Cn1cc([C@H]2CC[C@@H](N3CCN(c4cccc5cccnc45)CC3)CC2)c2cc(F)ccc21 (as salt: HCl) (hydrate or solvate) [Example 28, 8-{4-(1,4-cis)-4-[4-(5-Fluoro-1-methyl-1H-indol-3-yl)-cyclohexyl]-piperazin-1-yl}-quinoline]
11 | 230 to 232 °C | COc1cc(N2CCN([C@H]3CC[C@H](c4cn(C)c5ccc(C#N)cc54)CC3)CC2)c2nccc(C)c2c1 [Example 51d, (trans)-3-{4-[4-(6-Methoxy-4-methylquinolin-8-yl)piperazin-1-yl]cyclohexyl}-1-methyl-1H-indole-5-carbonitrile]
12 | 242 to 244 °C | COc1cc(N2CCN(C3CCC(c4c[nH]c5cc(C#N)ccc45)CC3)CC2)c2ncccc2c1 (centres unmarked) [Example 85, 3-{4-[4-(6-Methoxy-8-quinolinyl)-1-piperazinyl]cyclohexyl}-1H-indole-6-carbonitrile]
13 | 283 to 285 °C | Clc1ccc2[nH]cc([C@H]3CC[C@@H](N4CCN(c5cccc6[nH]ccc56)CC4)CC3)c2c1 (as salt: HCl) (hydrate or solvate) [Example 6a, 5-Chloro-3-[cis-4-[4-(1H-indol-4-yl)-1-piperazinyl]cyclohexyl]-1H-indole]

Continued, compound first:

Row | Compound | melting point
14 | N#Cc1ccc2[nH]cc([C@H]3CC[C@H](N4CCN(c5cccc6ccoc56)CC4)CC3)c2c1 (as salt: HCl) (hydrate or solvate) [Example 34b] | 330 to 331 °C
15 | Fc1ccc2[nH]cc([C@H]3CC[C@H](N4CCN(c5cccc6[nH]ccc56)CC4)CC3)c2c1 (as salt: HCl) [Example 3b, 5-Fluoro-3-[trans-4-[4-(1H-indol-4-yl)-1-piperazinyl]cyclohexyl]-1H-indole] | 280 °C (dec.)
16 | N#Cc1ccc2[nH]cc([C@H]3CC[C@@H](N4CCN(c5cccc6[nH]ccc56)CC4)CC3)c2c1 (as salt: HCl) [Example 7a, 3-{4-[(1,4-cis)-4-(1H-Indol-4-yl)-piperazinyl-1-yl]cyclohexyl}-1H-indole-5-carbonitrile] | 216 to 218 °C
17 | CC(C)n1cc([C@H]2CC[C@@H](N3CCN(c4cccc5[nH]ccc45)CC3)CC2)c2cc(C#N)ccc21 (as salt: HCl) (hydrate or solvate) [Example 15a, 3-{(1,4-cis)-4-[4-(1H-indol-4-yl)-piperazin-1-yl]-cyclohexyl}-1-isopropyl-1H-indole-5-carbonitrile] | 285 to 286 °C
18 | Cn1ccc2c(N3CCN([C@H]4CC[C@@H](c5cn(C)c6ccc(C#N)cc65)CC4)CC3)cccc21 (as salt: HCl) [Example 17, 1-Methyl-3-{(1,4-cis)-4-[4-(1-methyl-1H-indol-4-yl)-piperazin-1-yl]-cyclohexyl}-1H-indole-5-carbonitrile] | 252 to 255 °C
19 | COc1ccccc1C1CCN([C@H]2CC[C@H](c3c[nH]c4ccc(F)cc43)CC2)CC1 (as salt: HCl) [Example 19b, 5-Fluoro-3-{(1,4-trans)-4-[4-(2-methoxy-phenyl)-piperidin-1-yl]-cyclohexyl}-1H-indole] | 297 to 299 °C
20 | N#Cc1ccc2[nH]cc([C@H]3CC[C@@H](N4CCN(c5cc(F)cc6c5OCC6)CC4)CC3)c2c1 (as salt: HCl) (hydrate or solvate) [Example 33a, 3-{(1,4-cis)-4-[4-(5-Fluoro-2,3-dihydro-benzofuran-7-yl)-piperazin-1-yl]-cyclohexyl}-1H-indole-5-carbonitrile] | 298 to 301 °C
21 | COc1cc(N2CCN([C@H]3CC[C@H](c4c[nH]c5ccc(C#N)cc54)CC3)CC2)c2cc[nH]c2c1 (as salt: HCl) [Example 68b, 3-[trans-4-[4-(6-Methoxy-1H-indole-4-yl)-1-piperazinyl]cyclohexyl]1H-indole-5-carbonitrile] | > 210 °C
22 | COc1cc(N2CCN([C@H]3CC[C@@H](c4cn(C)c5ccc(C#N)cc54)CC3)CC2)c2ncccc2c1C [Example 52a, (cis)-3-{4-[4-(6-Methoxy-5-methylquinolin-8-yl)piperazin-1-yl]cyclohexyl}-1-methyl-1H-indole-5-carbonitrile] | 227 to 228 °C
23 | COc1cc(N2CCN([C@H]3CC[C@@H](c4c[nH]c5cc(F)ccc54)CC3)CC2)c2ncccc2c1 [Example 80, 8-{cis-4-[4-(6-Fluoro-1H-indol-3-yl)cyclohexyl]-1-piperazinyl}-6-methoxyquinoline] | 239 to 243 °C
24 | Fc1cc2c(c(N3CCN([C@H]4CC[C@H](c5c[nH]c6ccc(F)cc65)CC4)CC3)c1)OCC2 (as salt: HCl) (hydrate or solvate) [Example 32b, 5-Fluoro-3-{(1,4-trans)-4-[4-(5-fluoro-2,3-dihydro-benzofuran-7-yl)-piperazin-1-yl]-cyclohexyl}-1H-indole] | 303 to 305 °C
25 | N#Cc1ccc2[nH]cc([C@H]3CC[C@H](N4CCN(c5cccc6c5OCCO6)CC4)CC3)c2c1 (as salt: HCl) [Example 26b, 3-{(1,4-trans)-4-[4-(2,3-Dihydro-benzo[1,4]dioxin-5-yl)-piperazin-1-yl]-cyclohexyl}-1H-indole-5-carbonitrile] | 300 °C (dec.)
26 | Brc1ccc2[nH]cc([C@H]3CC[C@H](N4CCN(c5cccc6[nH]ccc56)CC4)CC3)c2c1 (as salt: HCl) [Example 5b, 5-Bromo-3-[trans-4-[4-(1H-indol-4-yl)-1-piperazinyl]cyclohexyl]-1H-indole] | > 300 °C
27 | CCCn1cc([C@H]2CC[C@@H](N3CCN(c4cccc5[nH]ccc45)CC3)CC2)c2cc(C#N)ccc21 (as salt: HCl) (hydrate or solvate) [Example 14a, 3-{(1,4-cis)-4-[4-(1H-Indol-4-yl)-piperazin-1-yl]-cyclohexyl}-1-propyl-1H-indole-5-carbonitrile] | 200 to 206 °C
28 | Cn1cc([C@H]2CC[C@H](N3CCN(c4cc(C(=O)O)cc5cccnc45)CC3)CC2)c2cc(C#N)ccc21 [Example 74, 8-[4-[(trans)-4-(5-Cyano-1-methyl-1H-indole-3-yl)cyclohexyl]-1-piperazinyl]-6-quinolinecarboxylic Acid] | 275 °C
29 | COc1cc2cccnc2c(N2CCN([C@H]3CC[C@@H](c4cn(C)c5ccc(C#N)cc54)CC3)CC2)n1 (as salt: salt) [Example 66a, (cis)-3-{4-[4-(6-Methoxy[1,7]naphthyridin-8-yl)piperazin-1-yl]cyclohexyl}-1-methyl-1H-indole-5-carbonitrile] | 235 to 238 °C
30 | Fc1cc2c(c(N3CCN([C@H]4CC[C@H](c5c[nH]c6ccc(F)cc65)CC4)CC3)c1)OCCC2 (as salt: HCl) (hydrate or solvate) [Example 31b, 5-Fluoro-3-{(1,4-trans)-4-[4-(6-fluoro-chroman-8-yl)-piperazin-1-yl]-cyclohexyl}-1H-indole] | 286 to 288 °C
31 | Cn1cc([C@H]2CC[C@H](N3CCN(c4cc(C=O)cc5cccnc45)CC3)CC2)c2cc(C#N)ccc21 [Example 72, 8-[4-[(trans)-4-(5-Cyano-1-methyl-1H-indole-3-yl)-cyclohexyl]-piperazin-1-yl]-6-quinolinecarbaldehyde] | 201 to 203 °C
32 | Fc1cc2c(c(N3CCN([C@H]4CC[C@@H](c5c[nH]c6ccc(F)cc65)CC4)CC3)c1)OCC2 (as salt: HCl) (hydrate or solvate) [Example 32a, 5-Fluoro-3-{(1,4-cis)-4-[4-(5-fluoro-2,3-dihydro-benzofuran-7-yl)-piperazin-1-yl]-cyclohexyl}-1H-indole] | 196 to 198 °C
